In assay [1] the target is Serine/threonine-protein kinase pim-2 (Homo sapiens) (UniProt Q9P1W9). Description: Inhibition of PIM2 (unknown origin) at 1 uM by Ambit Kinomescan binding assay relative to control; values are per cent of control.
For assay [2], the target named is Mitogen-activated protein kinase kinase kinase kinase 5 (Homo sapiens) (UniProt Q9Y4K4). Kind of assay: Inhibition of MAP4K5 (unknown origin) at 1 uM by Ambit Kinomescan binding assay relative to control; values are per cent of control.
Mitogen-activated protein kinase kinase kinase kinase 5 (Homo sapiens), sequence (Q9Y4K4 whole entry, looked up): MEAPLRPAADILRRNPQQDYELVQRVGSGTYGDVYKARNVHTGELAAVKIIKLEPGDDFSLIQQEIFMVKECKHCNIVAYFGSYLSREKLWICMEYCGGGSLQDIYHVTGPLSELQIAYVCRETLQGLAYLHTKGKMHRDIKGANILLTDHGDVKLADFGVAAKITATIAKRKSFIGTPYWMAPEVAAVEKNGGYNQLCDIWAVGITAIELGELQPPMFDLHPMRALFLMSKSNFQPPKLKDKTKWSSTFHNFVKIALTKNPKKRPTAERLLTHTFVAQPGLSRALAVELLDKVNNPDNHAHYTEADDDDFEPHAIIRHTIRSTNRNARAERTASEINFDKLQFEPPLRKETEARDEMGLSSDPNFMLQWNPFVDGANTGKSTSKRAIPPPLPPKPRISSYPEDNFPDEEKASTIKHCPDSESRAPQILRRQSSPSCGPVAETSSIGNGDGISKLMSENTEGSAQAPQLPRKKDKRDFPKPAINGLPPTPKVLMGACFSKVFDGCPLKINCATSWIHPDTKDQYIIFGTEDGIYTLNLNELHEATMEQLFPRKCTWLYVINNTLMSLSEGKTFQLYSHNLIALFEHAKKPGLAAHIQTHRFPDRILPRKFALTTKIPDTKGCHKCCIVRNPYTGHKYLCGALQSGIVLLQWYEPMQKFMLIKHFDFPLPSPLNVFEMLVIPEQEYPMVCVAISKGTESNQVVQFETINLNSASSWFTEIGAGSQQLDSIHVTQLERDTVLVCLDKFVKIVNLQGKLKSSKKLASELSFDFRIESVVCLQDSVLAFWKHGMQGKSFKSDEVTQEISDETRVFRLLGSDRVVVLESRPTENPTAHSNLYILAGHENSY
Assay [3] addresses T1, Serine/threonine-protein kinase D2 (Homo sapiens) (UniProt Q9BZL6).
T1 sequence (whole entry): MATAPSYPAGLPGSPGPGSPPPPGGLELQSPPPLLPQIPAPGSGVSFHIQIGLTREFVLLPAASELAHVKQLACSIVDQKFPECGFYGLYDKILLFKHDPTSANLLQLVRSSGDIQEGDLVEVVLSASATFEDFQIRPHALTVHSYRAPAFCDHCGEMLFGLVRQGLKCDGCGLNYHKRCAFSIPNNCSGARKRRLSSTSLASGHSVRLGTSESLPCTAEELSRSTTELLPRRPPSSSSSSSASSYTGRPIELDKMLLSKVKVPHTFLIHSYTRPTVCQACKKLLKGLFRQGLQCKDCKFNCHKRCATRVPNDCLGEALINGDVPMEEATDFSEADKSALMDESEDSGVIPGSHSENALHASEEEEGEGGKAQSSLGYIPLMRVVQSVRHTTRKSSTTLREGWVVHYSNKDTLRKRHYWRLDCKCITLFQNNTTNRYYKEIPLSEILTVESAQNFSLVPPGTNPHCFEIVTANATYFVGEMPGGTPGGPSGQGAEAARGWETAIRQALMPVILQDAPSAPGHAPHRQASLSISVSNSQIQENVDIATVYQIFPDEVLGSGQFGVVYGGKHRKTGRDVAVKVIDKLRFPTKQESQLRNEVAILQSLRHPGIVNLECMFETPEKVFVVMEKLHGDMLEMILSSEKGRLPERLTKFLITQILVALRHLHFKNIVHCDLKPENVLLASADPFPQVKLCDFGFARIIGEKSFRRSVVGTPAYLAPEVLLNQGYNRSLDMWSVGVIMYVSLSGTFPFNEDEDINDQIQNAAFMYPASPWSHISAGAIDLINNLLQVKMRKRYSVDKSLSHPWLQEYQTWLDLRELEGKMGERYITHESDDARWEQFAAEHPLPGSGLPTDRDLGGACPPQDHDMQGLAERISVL
Description: Inhibition of PKD2 Lys1 labeling site in human A-375 cells at 5 uM by KiNativ Profiling analysis relative to control. In kind it is cell-based.

The target of assay [4] is Tyrosine-protein kinase BTK (Homo sapiens) (UniProt Q06187). Description: Inhibition of BTK (unknown origin) at 10 uM by Ambit Kinomescan binding assay.
In assay [5] the target is Calcium/calmodulin-dependent protein kinase type II subunit gamma (Homo sapiens) (UniProt Q13555). Description: Inhibition of CAMK2G (unknown origin) at 10 uM by Ambit Kinomescan binding assay.
Calcium/calmodulin-dependent protein kinase type II subunit gamma (Homo sapiens), sequence (Q13555 whole entry): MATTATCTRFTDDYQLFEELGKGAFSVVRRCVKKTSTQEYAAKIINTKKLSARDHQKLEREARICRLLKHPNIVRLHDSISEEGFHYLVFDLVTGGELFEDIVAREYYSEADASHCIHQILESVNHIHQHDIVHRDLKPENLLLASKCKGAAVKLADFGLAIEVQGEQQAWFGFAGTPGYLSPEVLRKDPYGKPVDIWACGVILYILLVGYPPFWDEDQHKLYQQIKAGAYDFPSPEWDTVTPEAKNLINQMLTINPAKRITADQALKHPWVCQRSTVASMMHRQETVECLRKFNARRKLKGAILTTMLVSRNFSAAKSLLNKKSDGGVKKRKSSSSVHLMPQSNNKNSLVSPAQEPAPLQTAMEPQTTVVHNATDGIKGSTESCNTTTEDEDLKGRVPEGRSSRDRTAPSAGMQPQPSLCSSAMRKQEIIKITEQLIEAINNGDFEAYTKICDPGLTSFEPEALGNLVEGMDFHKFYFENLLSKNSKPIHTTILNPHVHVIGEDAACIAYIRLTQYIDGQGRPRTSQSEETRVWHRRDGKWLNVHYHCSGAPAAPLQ
The target of assay [6] is Misshapen-like kinase 1 (Homo sapiens) (UniProt Q8N4C8). Kind of assay: Inhibition of ZC3/MINK Lys2 labeling site in human A-375 cells at 5 uM by KiNativ Profiling analysis relative to control. In kind it is cell-based.
The target in assay [7] is Cyclin-dependent kinase 14 (Homo sapiens) (UniProt O94921). Kind of assay: Inhibition of PFTK1 (unknown origin) at 10 uM by Ambit Kinomescan binding assay relative to control.
Cyclin-dependent kinase 14 (Homo sapiens), sequence (O94921 whole entry): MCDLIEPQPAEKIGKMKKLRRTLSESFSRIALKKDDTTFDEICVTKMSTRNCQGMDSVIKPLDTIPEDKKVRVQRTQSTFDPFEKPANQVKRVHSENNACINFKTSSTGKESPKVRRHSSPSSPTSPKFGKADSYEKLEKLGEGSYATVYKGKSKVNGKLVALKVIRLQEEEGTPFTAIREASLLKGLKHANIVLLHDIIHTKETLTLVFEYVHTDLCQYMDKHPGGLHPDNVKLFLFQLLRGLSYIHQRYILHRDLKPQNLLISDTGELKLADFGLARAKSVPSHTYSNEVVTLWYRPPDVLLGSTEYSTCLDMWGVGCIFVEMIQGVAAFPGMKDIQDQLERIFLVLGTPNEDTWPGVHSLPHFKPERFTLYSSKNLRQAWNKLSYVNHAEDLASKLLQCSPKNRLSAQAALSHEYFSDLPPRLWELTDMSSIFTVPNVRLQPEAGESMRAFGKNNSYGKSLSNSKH
In assay [8] the target is T2, Serine/threonine-protein kinase ULK3 (Homo sapiens) (UniProt Q6PHR2).
T2 sequence (whole entry): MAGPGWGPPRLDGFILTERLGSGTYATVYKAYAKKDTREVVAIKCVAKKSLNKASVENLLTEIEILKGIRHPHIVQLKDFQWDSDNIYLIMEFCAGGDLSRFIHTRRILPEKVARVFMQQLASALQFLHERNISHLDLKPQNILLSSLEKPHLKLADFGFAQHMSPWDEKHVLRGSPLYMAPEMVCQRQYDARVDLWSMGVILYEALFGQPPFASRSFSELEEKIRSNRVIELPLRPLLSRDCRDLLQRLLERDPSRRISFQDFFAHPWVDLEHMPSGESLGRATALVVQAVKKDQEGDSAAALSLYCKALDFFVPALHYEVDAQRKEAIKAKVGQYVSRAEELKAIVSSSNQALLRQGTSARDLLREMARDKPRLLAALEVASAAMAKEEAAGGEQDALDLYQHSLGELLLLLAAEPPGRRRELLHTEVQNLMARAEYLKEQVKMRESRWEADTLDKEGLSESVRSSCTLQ
Kind of assay: Inhibition of ULK3 Lys2 labeling site in human A-375 cells at 0.05 uM by KiNativ Profiling analysis relative to control. It counts as cell-based.

For assay [9], the system named is Epidermal growth factor receptor (Homo sapiens), P00533 [UNDEFINED MUTATION]. Kind of assay: Inhibition of EGFR S752-I759del mutant (unknown origin) at 10 uM by Ambit Kinomescan binding assay relative to control.
Assay [10] has as its target Fibroblast growth factor receptor 3 (Homo sapiens) (UniProt P22607). Kind of assay: Inhibition of FGFR3 (unknown origin) at 10 uM by Ambit Kinomescan binding assay relative to control.
Assay [11] deals with Ribosomal protein S6 kinase alpha-5 (Homo sapiens) (UniProt O75582). Description: Inhibition of MSK1 domain1 ATP Loop labeling site in human Huh-7 cells at 1 uM by KiNativ Profiling analysis relative to control. It counts as cell-based.
Ribosomal protein S6 kinase alpha-5 (Homo sapiens), sequence (O75582 whole entry, looked up, the tested form may be a part): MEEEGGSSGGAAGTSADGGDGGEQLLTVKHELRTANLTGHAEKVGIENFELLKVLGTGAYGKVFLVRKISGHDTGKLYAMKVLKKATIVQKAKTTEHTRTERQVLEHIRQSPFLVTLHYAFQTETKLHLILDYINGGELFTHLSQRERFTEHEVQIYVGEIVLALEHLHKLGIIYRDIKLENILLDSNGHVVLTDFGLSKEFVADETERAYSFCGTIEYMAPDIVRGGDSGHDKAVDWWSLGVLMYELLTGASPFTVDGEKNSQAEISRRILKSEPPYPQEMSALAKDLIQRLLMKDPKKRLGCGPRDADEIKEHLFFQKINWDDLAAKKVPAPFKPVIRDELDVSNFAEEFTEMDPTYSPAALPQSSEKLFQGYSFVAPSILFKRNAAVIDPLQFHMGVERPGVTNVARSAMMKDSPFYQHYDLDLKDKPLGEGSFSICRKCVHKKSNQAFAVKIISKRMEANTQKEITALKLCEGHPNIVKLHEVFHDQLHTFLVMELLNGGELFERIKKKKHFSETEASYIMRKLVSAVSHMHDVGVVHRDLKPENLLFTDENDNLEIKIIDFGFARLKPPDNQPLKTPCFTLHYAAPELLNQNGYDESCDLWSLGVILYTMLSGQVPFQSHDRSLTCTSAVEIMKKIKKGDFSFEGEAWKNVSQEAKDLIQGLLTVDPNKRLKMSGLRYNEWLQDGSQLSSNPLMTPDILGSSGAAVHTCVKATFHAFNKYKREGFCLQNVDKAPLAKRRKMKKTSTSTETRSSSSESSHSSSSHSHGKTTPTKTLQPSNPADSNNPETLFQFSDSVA
For assay [12], the target named is Mitogen-activated protein kinase kinase kinase 20 (Homo sapiens, UniProt Q9NYL2). Kind of assay: Inhibition of ZAK Lys1 labeling site in human Huh-7 cells at 1 uM by KiNativ Profiling analysis relative to control. It counts as cell-based.
Mitogen-activated protein kinase kinase kinase 20, sequence (Q9NYL2 2-800 limits assumed): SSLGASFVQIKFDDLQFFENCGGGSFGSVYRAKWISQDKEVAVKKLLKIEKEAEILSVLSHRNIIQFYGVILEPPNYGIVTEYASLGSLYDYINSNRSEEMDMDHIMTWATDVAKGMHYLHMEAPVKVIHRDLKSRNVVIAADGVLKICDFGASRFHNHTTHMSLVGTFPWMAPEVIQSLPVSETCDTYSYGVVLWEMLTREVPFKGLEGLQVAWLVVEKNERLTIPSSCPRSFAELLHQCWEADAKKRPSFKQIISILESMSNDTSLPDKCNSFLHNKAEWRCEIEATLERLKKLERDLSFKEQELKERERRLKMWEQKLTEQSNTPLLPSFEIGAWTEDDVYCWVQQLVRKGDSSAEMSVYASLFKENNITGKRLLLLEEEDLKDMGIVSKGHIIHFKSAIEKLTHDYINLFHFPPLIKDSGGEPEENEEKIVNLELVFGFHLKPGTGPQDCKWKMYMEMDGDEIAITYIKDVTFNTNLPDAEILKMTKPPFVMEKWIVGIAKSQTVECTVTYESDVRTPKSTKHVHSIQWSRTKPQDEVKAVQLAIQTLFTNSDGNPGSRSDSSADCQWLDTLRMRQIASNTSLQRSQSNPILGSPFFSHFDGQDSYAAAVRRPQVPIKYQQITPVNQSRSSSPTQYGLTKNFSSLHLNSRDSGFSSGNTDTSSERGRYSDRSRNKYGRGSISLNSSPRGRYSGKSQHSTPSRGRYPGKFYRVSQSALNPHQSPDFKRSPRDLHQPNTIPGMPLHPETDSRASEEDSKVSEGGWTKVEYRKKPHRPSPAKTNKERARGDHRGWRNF
For assay [13], the target named is T3, Dual specificity mitogen-activated protein kinase kinase 7 (Homo sapiens) (UniProt O14733).
T3 sequence (whole entry): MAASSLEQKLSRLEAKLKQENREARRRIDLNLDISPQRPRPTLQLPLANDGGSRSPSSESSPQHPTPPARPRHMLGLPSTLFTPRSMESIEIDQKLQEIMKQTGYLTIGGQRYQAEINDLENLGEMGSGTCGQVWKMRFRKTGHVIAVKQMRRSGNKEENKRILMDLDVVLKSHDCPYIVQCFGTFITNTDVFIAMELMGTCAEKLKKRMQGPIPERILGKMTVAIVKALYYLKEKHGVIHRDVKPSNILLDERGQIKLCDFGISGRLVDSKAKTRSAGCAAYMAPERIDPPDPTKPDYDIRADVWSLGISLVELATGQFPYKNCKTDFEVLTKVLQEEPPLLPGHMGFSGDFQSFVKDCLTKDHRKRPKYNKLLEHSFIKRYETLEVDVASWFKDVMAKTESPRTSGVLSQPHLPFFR
Kind of assay: Inhibition of MAP2K7 Lys2 labeling site in human Huh-7 cell lysate at 1 uM by KiNativ Profiling analysis relative to control. It counts as subcellular.

As a reminder, the inhibition is the percentage by which the read-out fell short of the control.

Calls of active or inactive are those of the source. The rule behind the calls is not given here.

Serine/threonine-protein kinase pim-2 (Homo sapiens), sequence (Q9P1W9 whole entry, looked up): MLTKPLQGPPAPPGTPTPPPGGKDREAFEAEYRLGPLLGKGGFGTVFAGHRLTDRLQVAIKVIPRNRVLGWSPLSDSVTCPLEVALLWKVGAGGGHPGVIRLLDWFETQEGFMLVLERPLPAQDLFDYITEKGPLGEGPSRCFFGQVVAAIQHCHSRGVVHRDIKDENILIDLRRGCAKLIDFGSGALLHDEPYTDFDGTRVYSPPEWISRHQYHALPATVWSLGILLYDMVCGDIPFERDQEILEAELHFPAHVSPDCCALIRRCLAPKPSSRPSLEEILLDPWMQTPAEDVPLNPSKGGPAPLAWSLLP
Fibroblast growth factor receptor 3 (Homo sapiens), sequence (P22607 23-806 limits assumed): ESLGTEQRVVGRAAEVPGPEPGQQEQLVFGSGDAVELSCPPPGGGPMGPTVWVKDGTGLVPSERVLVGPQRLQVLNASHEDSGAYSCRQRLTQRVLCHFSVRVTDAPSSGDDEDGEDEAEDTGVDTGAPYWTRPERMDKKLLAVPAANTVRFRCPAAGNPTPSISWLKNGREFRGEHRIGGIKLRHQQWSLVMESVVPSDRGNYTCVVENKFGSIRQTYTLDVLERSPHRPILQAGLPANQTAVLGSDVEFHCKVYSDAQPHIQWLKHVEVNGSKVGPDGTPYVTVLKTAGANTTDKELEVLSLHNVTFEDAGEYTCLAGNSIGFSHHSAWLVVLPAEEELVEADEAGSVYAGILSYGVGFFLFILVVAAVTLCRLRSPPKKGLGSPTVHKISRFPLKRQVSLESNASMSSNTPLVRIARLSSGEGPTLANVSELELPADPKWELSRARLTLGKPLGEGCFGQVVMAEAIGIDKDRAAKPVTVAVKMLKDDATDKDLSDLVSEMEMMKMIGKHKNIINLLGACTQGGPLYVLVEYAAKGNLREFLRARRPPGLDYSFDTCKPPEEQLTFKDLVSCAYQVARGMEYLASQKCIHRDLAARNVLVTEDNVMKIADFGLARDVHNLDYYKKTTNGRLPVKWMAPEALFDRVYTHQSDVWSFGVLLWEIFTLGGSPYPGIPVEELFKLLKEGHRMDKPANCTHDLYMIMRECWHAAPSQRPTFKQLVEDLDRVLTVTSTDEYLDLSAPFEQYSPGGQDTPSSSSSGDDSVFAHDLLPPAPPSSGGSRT

Turning to `CCN1CCN(Cc2ccc(NC(=O)c3ccc(C)c(/C=C/c4cnc5[nH]ccc5c4OC)c3)cc2C(F)(F)F)CC1`, the residual activity in assay [1] turned out to be 100%; in assay [2], 7.2%. This compound also showed an inhibition in assay [3] of 2.1%.
With `CCN1CCN(Cc2ccc(NC(=O)c3ccc(C)c(Oc4ccnc5[nH]ccc45)c3)cc2C(F)(F)F)CC1`, the inhibition entry in assay [4] and in assay [5] was “inactive” each time. In addition, the inhibition came to 92.7% in [6]; 0.4% in assay [7]; 6.7% in [8]; 4.6% in assay [9]; 9.4% in [10].
In the case of `CNc1cc(Oc2cc(C(=O)Nc3cc(N4CCN(C)CC4)cc(C(F)(F)F)c3)ccc2C)ncn1`, the inhibition in assay [11] stood at 11.5%; in assay [12] it was 13.8%; in assay [13], 2.7%.

(Values after ChEMBL document CHEMBL5696442, “Discovery of type II inhibitors of TGFβ-activated kinase 1 (TAK1) and mitogen-activated protein kinase kinase kinase kinase 2 (MAP4K2)” (J Med Chem, 2015).)
